The source of these data is patent US9751830B2, “Inhibitors of the tumor necrosis factor receptor complex” (The Trustees of the University of Pennsylvania, priority 2010, dated 2017).

In one data set the test system is L929 cells. Briefly: Inhibition of TNF-α-induced cytolysis in L929 cells (Crystal Violet staining). The data set is classed as cell-based, murine. Here is the method: L929 cultured murine fibroblast cells were obtained from American Type Culture collection (Manassas, Va.). TNF-α was obtained from Roche Applied Science (T6674). Actinomycin D (ACTD) and Crystal Violet were obtained from Sigma-Aldrich. Testing compounds were dissolved in DMSO at 25 mM. Compounds F001 and FT002/F002, appearing in FIG. 3 and FIG. 2/FIG. 4, were described previously in application Ser. No. 11/815,134 as FIGS. 1-6 and 1-9, respectively, and are reproduced here for reference. Compound 71023, appearing in FIG. 1, was ([(aminocarbothioyl)amino]{[4-({[[(aminocarbothioyl)amino](ammonio)methyl]amino}methyl)-2,5-dimethylbenzyl]amino}methylidene)ammonium dichloride, available from Maybridge Chemicals, UK. Compound MH_072 (also described herein as the compound of formula (II)) was also obtained from Maybridge Chemicals, UK. Compound MH_0724 was synthesized by Sapient Discovery, San Diego, Calif., as described in Example 2.
(§1) Stock L929 cells were grown on tissue culture plastic in complete Dulbecco's Modified Eagle Medium (DMEM) supplemented with 5 weight percent FBS [Fetal Bovine Serum], NEAA [non-essential amino acids], and glutamine. In a first set of experiments, L929 cells were plated using the same medium on 96-well tissue culture plates at high density (i.e., 30,000 cells/well) before use. In a second set of experiments, the testing compounds were pre-incubated with cells for 1 hour. hTNF-α (10 ng/ml) was added to cells for 30 minutes. Cell lysates were then collected for routine Western Blot.
(§2) Approximately 20 hours after plating the L929 cells on 96-well plates, they were re-fed onto fresh medium containing the test compounds (from 0 to 100 μM, final concentration).
For the TNF-α challenges, approximately 30 minutes later, medium containing 4 unit/mL rh-TNF-α and actinomycin D (10 μg/mL) was added. The final concentrations of rh-TNF-α in the assays were […], which is the ED50 concentrations confirmed to induce 50% cell death. The final concentrations of actinomycin D in the assays were 2.5 μg/mL. The plates were incubated for an additional 16-20 hours at 37° C., 5 vol % CO2 in air.
For Crystal Violet staining, the culture medium was discarded and replaced with 0.2% by weight (in 2% by volume ethanol in water), 100 μL/well. After 15 minutes incubation at room temperature, the plates were washed 6 times with deionized water and dried at 37° C. for 40 minutes. Sodium dodecylsylfate (SDS), (1 wt % in water; 100 μL) was added to each well and mixed gently for 1 hour at room temperature. The plates were read at A570 nm

For data set [1], the system named is phosphorylation of IκB (p-IκBα(Ser32)). Briefly: Western blot of TNFα-induced phosphorylation of IκB in L929 cells. The data set is classed as cell-based, murine. Conditions: FIG. 4. The method, then:
(§3) hTNF-α was obtained from Sigma (Cat # T6674). Antibodies for IκB, phospho-IκB, p38, and phospho-p38 were purchased from Cell Signaling.
as §1
(§4) Inhibition of TNFα signaling pathways: Upon binding to TNFRs, TNFα induces inflammation through the activation of NFκB and p38 signaling pathways. We determined IκB and p38 effects. IκB is the inhibitor for NFκB. TNFα leads to the phosphorylation and disassociation of IκB from NFκB, a signaling event required for NFκB to become activated and translocate into the nucleus to mediate gene transcription.
A general note: A western blot detects proteins with antibodies after separation by electrophoresis.

In data set [2] the test system is TNFα mediated NFκB activity (A549Luc cells). The experiment in a line: TNFα mediated NFκB luciferase reporter assay in A549Luc cells. Conditions: for inhibition of TNFα mediated luciferase activity: 1 hr pre-treatment, 20 ng/ml TNFα 4 hours, FIG. 7; for activity to reduce luciferase activity, F002 and MH0724 compared: concentrations up to 75 μM. The format is cell-based, human. The method, then: To study TNFα mediated-NFκB activity, a luciferase reporter system was established. The stable cell line A549Luc was derived from human A549 cells with chromosomal integration of a luciferase reporter construct regulated by 6 copies of the NFκB response element. This clonal cell line was obtained by co-transfection of pNFκB-TA-luc and pFLAG-TNFR1-neo followed by G418 selection at 800 μg/ml. A549Luc cells were pre-treated with inhibitors at indicated concentrations for 1 hr before incubation with 20 ng/ml TNFα for 4 hours. Increased luciferase activity was recorded after TNFα treatment. Luciferase activity was determined using the Luciferase Assay System from Promega.
In this assay, the luciferase activity of A549Luc cells before and after TNFα treatment (20 ng/ml) was equivalent to 0% and 100%, respectively.
Background: In a reporter assay the amount or activity of a reporter protein is the signal.

Data set [3] in a line: Solubility under the conditions of the L929 cytolysis assay. The data set is classed as physicochemical. Conditions: L929 cytolysis assay medium, plasma or biological fluid; read-out: soluble under these conditions only up to. Here is the method:
as §2

Data set [4] relates to phosphorylation of p38 (p-p38). The experiment in a line: Western blot of TNFα-induced phosphorylation of p38 in L929 cells. The data set is classed as cell-based, murine. The note with it: 50 μM; 1 hour pre-incubation, hTNF-α 10 ng/ml 30 minutes; FIG. 4. Here is the method: as §3, §1, §4
The target in data set [5] is T1, TNFR1 ectodomain (TNFR1 ECD) (Homo sapiens, UniProt P19438).
T1 construct: The calorimetric cell containing purified TNFR1 ectodomain at a concentration of 0.1 mM; His; made in house
T1 sequence (P19438 30-211 limits assumed): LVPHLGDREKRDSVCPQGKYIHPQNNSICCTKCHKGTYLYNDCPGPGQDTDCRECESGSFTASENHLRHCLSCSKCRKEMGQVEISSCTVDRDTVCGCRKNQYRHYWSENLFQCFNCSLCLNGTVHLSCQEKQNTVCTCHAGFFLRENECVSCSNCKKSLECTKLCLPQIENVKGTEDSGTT
Briefly: Isothermal titration calorimetry (ITC) binding to TNFR1 ectodomain. Conditions: 25° C., pH 8.0, 5% DMSO, estimated, read-out: affinity between compound and TNFR1 ECD. Here is the method:
Human TNFR1 ectodomain was expressed in bacteria as described Murali, et al., 2005 PNAS 102:10970-75, which is incorporated by reference herein in its entirety. The His-tagged recombinant protein was purified from bacterial cell lysate using Ni-NTA column About 4 mg proteins were obtained from 6 liters of culture. The purified TNFR1 ectodomain was verified for binding activity to hTNF-α in ELISA assay.
Isothermal Titration calorimetry (ITC). The binding thermodynamics of MH724 to TNFR1 was measured by ITC using a high precision VP-ITC titration calorimetric system (Microcal LLC, Northampton, Mass.). The calorimetric cell containing purified TNFR1 ectodomain at a concentration of 0.1 mM in 50 mM sodium phosphate buffer (pH 8.0) containing 300 mM NaCl and 5% DMSO was titrated with MH724 dissolved in the same buffer. The concentration of inhibitor was 2 mM. Injection volumes were 8 μl. All solutions were properly degassed to avoid any formation of bubbles in the calorimeter during stirring. The heat evolved upon each injection of inhibitor was obtained from the integral of the calorimetric signal. The heat associated with the binding of the inhibitor to TNFR1 was obtained by subtracting the heat of dilution from the heat of reaction. The measurements were made at 25° C. Data were analyzed and fitted by using the data analysis software supplied by Microcal (ORIGIN 5.0).

Take `COc1ccc(C(O)(c2ccc(OC)cc2)c2ccc(OC)cc2)cc1` [Compound F001, reference compound]: the “inhibition of TNF-α-induced cytolysis in L929 cells” value (“inhibition … in L929 cells” below) with L929 cells (from 0 to 100 μM, FIG. 3) is listed as “minimal activity”.
As to `CC(=O)Oc1ccc(C(O)(c2ccc(OC(C)=O)cc2)c2ccc(OC(C)=O)cc2)cc1` [Compound F002, reference compound], the “activity on TNFα signaling, F002 compared with MH724” value in data set [1] (10 μM, IκB and p38 phosphorylation) is “slightly more activity”. Further, in data set [2], the “inhibition of TNFα mediated luciferase activity” value is “dose-dependent manner”; the “activity to reduce luciferase activity, F002 and MH0724 compared” value was “comparable activity”.
One may read the inhibition as the relative decrease from the control value, in per cent. Regarding `CC(=O)Nc1ccccc1OCC(O)CNCc1ccc(C(F)(F)F)cc1` (stereo not shown) [MH_072], the “maximum inhibition of TNF-α-induced cytolysis” value with L929 cells (0 to 50 μM, level limited by solubility) is “about 30%”. The compound also had an inhibition at 50 µM in the data set on L929 cells (Mus musculus, L929, at 50 μM) of around 30%. The “inhibition … in L929 cells” value with L929 cells (from 0 to 50 μM, FIG. 2) is recorded as “dose-dependent inhibition”. For the same compound, the solubility in data set [3] is at most 50 µM.
Take `COC(CNc1ccc(C(F)(F)F)cc1)COc1ccccc1COC(C)=O` (stereo not shown) [MH_0724, Acetic acid 2-[2-methoxy-3-(4-trifluoromethyl-phenylamino)-propoxy]-benzyl ester]: the inhibition at 100 µM in the data set with L929 cells (Mus musculus, L929, 100 μM, read-out: maximal inhibition of TNF-α-induced cytolysis) is around 70%. In the data set on L929 cells (Mus musculus, L929, at 50 μM), this compound returned an inhibition at 50 µM of around 40%. In addition, the “inhibition of TNF-α-induced cytolysis” value in the data set on L929 cells (at 50 μM) is “about 40%”. For the same compound, the “inhibition … in L929 cells” value in the data set on L929 cells (from 0 to 100 μM, FIG. 3) is recorded as “dose-dependent inhibition”. Also, the “inhibition of TNFα-induced phosphorylation of IκB” value in data set [1] (50 μM, 1 hour pre-incubation, hTNF-α 10 ng/ml 30 minutes) was “clearly inhibits”. Also, the “activity on TNFα signaling, MH724 compared with F002” value in data set [1] (50 μM, IκB and p38 phosphorylation) was “better activity”. For the same compound, in data set [4], the “inhibition of TNFα-induced phosphorylation of p38” value was “clearly inhibits”. The Kd in data set [5] is 32 µM. Also, in data set [2] (100 μM, before and after TNFα treatment = 0% and 100%), the “luciferase activity, of the control” value is given as “less than 40%”. In addition, in data set [2], the “inhibition of TNFα mediated luciferase activity” value is recorded as “dose-dependent manner”; the “activity to reduce luciferase activity, F002 and MH0724 compared” value is “comparable activity”.
